{"source": "paper PMC12392461", "about": "“Beyond Estrogenicity: A Comparative Assessment of Bisphenol A and Its Alternatives in In Vitro Assays Questions Safety of Replacements” (Environmental Science & Technology, 2025)", "key": {"[1]": {"molecular_target": "T1, Aryl hydrocarbon receptor (Rattus norvegicus, UniProt P41738)", "T1 sequence (P41738 10-853)": "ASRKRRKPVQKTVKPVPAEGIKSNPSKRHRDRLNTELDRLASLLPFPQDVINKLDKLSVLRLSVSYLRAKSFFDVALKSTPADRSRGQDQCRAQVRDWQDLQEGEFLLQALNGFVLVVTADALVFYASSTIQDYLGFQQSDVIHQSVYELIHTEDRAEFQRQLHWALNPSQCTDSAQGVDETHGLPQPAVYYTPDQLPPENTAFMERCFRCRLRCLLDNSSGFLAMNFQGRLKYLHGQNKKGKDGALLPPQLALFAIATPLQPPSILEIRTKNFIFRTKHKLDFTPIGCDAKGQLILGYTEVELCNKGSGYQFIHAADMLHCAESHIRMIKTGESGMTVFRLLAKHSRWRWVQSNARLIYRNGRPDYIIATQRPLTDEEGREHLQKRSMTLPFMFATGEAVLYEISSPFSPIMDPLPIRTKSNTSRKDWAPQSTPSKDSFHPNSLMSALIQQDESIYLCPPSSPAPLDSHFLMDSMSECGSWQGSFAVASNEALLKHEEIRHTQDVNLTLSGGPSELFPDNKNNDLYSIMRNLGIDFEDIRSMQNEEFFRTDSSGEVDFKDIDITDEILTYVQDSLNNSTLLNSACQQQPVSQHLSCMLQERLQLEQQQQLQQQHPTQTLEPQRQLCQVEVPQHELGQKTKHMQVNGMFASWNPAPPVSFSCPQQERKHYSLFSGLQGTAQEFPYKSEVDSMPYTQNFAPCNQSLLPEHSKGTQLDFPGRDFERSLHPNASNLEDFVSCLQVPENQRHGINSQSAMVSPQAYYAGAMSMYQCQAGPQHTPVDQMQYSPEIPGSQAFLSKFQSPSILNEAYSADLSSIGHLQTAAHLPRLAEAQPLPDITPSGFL", "settings": "input of the ToxPi score, values up to 1.00", "text": "(§1) All bioassay media components and the ERα-UAS-bla GripTite and PPARγ-UAS-bla cells were obtained from Thermo Fisher Scientific (Waltham, MA, USA). AREc32 reporter gene cells based on MCF7 were provided by C. Roland Wolf (Cancer Research UK); AhR CALUX cells (H4L7.5c2 derived from H4IIe) were provided by Michael Denison (UC Davis, USA); and SH-SY5Y cells were purchased from Sigma-Aldrich.\n(§2) Cell culture conditions and bioassay protocols including response detection are provided in Text S2.1–2.4 and Table S3. − Cell viability was determined from cell confluency using an IncuCyte S3 Live-Cell Analysis System (Sartorius AG, Essen, Germany) before and after exposure, except for SH-SY5Y cells (live–dead staining with Nuclear Green LcS1 and propidium iodide, Abcam, UK). For metabolic activation experiments, cell viability was assessed using the ToxBLAzer DualScreen Kit (Thermo Fisher Scientific) to capture the remaining toxicity in ERα-UAS-bla GripTite after treatment with the aCYP catalyst (details in Text S2.4).\n(§3) For ARE, the concentration that triggered an induction ratio of 1.5 (ECIR1.5) was used as the benchmark value, as detailed in Text S2.5. IC10 values also served as a threshold for data analysis in all assays; only concentrations below IC10 were considered when deriving EC10 or ECIR1.5. […]\n(§4) S2: Cell culture and bioassays\n(§5) S2.1: Cell Culturing Conditions\n(§6) All suppliers and sources are given in detail in SI-Excel S3. The bioassay media for the different assays were prepared as follows: Assay medium for ER alpha-UAS-bla GripTite (ERα) and PPAR gamma-UAS-bla 293H (PPARγ) was prepared with 98% Opti-MEM, supplemented with 2% charcoal-stripped FBS, and 100 U/mL penicillin-streptomycin. MitoOxTox and AhR assay medium was comprised of 90% DMEM with GlutaMAX, supplemented with 10% FBS, and 100 U/mL penicillin-streptomycin. Neurotoxicity assay medium consisted of the neurobasal […]\n(§7) (1 picture or pasted object on this page, not shown here) […]\n(§8) medium, supplemented with 2% B-27 Supplement and 2 mM GlutaMAX Supplement. SH - SY5Y cells were differentiated with 10 µM all-trans retinoic acid prior to the assay.\n(§9) S2.2: Cell Seeding and Incubation. For all bioassays, cell suspensions in the respective assay medium were dispensed into each well of 384-well plates using a MultiFlo Dispenser (Biotek, (now Agilent), Winooski, VT, U.S.). After seeding, the plates were incubated at 37° C and 5% CO₂ for […]. The final cell densities and plate types were as follows: Black poly-D-lysine coated 384-well plates (Product No. 354663, Corning Inc., NYC, U.S.) were used for PPARγ:\n(§10) 6500 cells/well, ERα: 5000 cells/well. White 384-well plates with a clear bottom (Product No.\n(§11) 781098, Greiner, Kremsmünster, Austria) were utilized for the MitoOxTox assay: 2650"}, "SH-SY5Y cells": {"system": "SH-SY5Y cells", "test": "cells", "settings": "for EC10: Homo sapiens, SH-SY5Y", "text": "as §1, §2, §3, §4, §5, §6, §7, §8, §9, §10, §11"}}, "note": "Read-outs that look alike come from different tables or passages of the source.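 For Relative effect potency REPNOI in this document: EC10 of BPA divided by EC10 of the test compound so values above 1 mean more potent.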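 For Specificity ratio (SRbaseline) SRNOI in this document: ratio of predicted baseline cytotoxicity IC10 to the neurite outgrowth inhibition EC10.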"}
{"smiles": "CC1(C)[C@H](O)C(C)(C)[C@H]1O", "note": "[t-TMCD, trans-2,2,4,4-Tetramethyl-1,3-cyclobutanediol]", "values": [{"measurement": "log(1/EC10) AhR", "setting": "[1]", "result": 0.30}, {"measurement": "EC10", "setting": "SH-SY5Y cells; read-out: EC10, NOI", "result": 0.00415, "unit": "M"}, {"measurement": "EC10", "setting": "SH-SY5Y cells; read-out: EC10, NOI (M)", "result": 0.00415, "unit": "M"}, {"measurement": "Specificity ratio (SRbaseline) SRNOI", "setting": "SH-SY5Y cells; against baseline cytotoxicity", "result": 0.24}, {"measurement": "Relative effect potency REPNOI", "setting": "SH-SY5Y cells; relative to BPA", "result": 0.0122}]}
